The nature of the series: Plasma levels of the two forms of PEA. The following applies: in vivo.

For `CCCCCCCCCCCCCCCC(=O)NCCO` [PEA-um, palmitoylethanolamide], the “Plasma levels, PEA-um compared with PEA-m” value is given as “substantially the same”.
